1 compound from patent publication US20100081690A1, “OXAZOLE DERIVATIVES AS POSITIVE ALLOSTERIC MODULATORS OF METABOTROPIC GLUTAMATE RECEPTORS” (ADDEX PHARMA SA, priority 2006, published 2010) can be followed below.

One series deals with T1, mGluR5 (Rattus norvegicus, UniProt P31424).
T1 construct: positive allosteric modulators of mGluR5 receptors in native preparations; endogenous in cells; host or cells: primary cortical astrocytes from Sprague-Dawley rat embryos (E16-19)
Nature of the series: mGluR5 binding assay ([3H]-MPEP, rat brain membranes). The note with it: competition with 3 nM [3H]-MPEP, rat cortical membranes, 1 h at 4° C. An excerpt: Activity of compounds of the invention was examined following a radioligand binding technique using whole rat brain and tritiated 2-methyl-6-(phenylethynyl)-pyridine ([^3H]-MPEP) as a ligand following similar methods than those described in Gasparini et al. (2002) Bioorg. Med. Chem. Lett. 12:407-409 and in Anderson et al. (2002) J. Pharmacol. Exp. Ther. 303 (3) 1044-1051.
Cortices were dissected out from brains of 200-300 g Sprague-Dawley rats (Charles River Laboratories, L'Arbresle, France). Tissues were homogenized in 10 volumes (vol/wt) of ice-cold 50 mM Hepes-NaOH (pH 7.4) using a Polytron disrupter (Kinematica AG, Luzern, Switzerland) and centrifuged for 30 min at 40,000 g. (4° C.). […] Protein concentration was determined by the Bradford method (Bio-Rad protein assay, Reinach, Switzerland) with bovine serum albumin as standard.
Membranes were thawed and resuspended in binding buffer containing 20 mM HEPES-NaOH, 3 mM MgCl2, 3 mM CaCl2, 100 mM NaCl, pH 7.4. […] Radioactivity was determined by liquid scintillation spectrometry using a 96-well plate reader (TopCount, Perkin-Elmer, Downers Grove, USA).
The inhibition curves were generated using the Prism GraphPad program (Graph Pad Software Inc, San Diego, USA). […] The mean of IC50 obtained from at least three independent experiments of selected molecules performed in duplicate were calculated.

A further series concerns the target T2, rat mGluR5 (Rattus norvegicus, UniProt P31424).
T2 construct: expressed in transfected cells
Nature of the series: mGluR5 assay on HEK-expressing rat mGluR5 (fluorescent cell based Ca2+ mobilization). The note with it: HEK-293 cells stably expressing rat mGluR5, no co-addition of glutamate; mean of at least three independent experiments in duplicate; read-out: Ca2+ Flux (mean EC50). The procedure: Positive functional expression of HEK-293 cells stably expressing rat mGluR5 receptor was determined by measuring intracellular Ca^2+ changes using a Fluorometric Imaging Plate Reader (FLIPR, Molecular Devices, Sunnyvale, Calif.) in response to glutamate or selective known mGluR5 agonists and antagonists. Rat mGluR5RT-PCR products in HEK-293 cells were sequenced and found 100% identical to rat mGluR5Genbank reference sequence (NM_017012). HEK-293 cells expressing rmGluR5 were maintained in media containing DMEM, dialyzed Fetal Bovine Serum (10%), Glutamax™ (2 mM), Penicillin (100 units/ml), Streptomycin (100 μg/ml), Geneticin (100 μg/ml) and Hygromycin-B (40 μg/ml) at 37° C./5% CO2.
After one day of incubation, cells were washed with assay buffer containing: 142 mM NaCl, 6 mM KCl, 1 mM […], 1 mM CaCl2, 20 mM HEPES, 1 g/L glucose, 0.125 mM sulfinpyrazone, pH 7.4. After 60 min of loading with 4 uM Fluo-4 (TefLabs, Austin, Tex.), the cells were washed three times with 50 μl of PBS Buffer and resuspended in 45 μl of assay Buffer. The plates were then transferred to a Fluorometric Imaging Plate Reader (FLIPR, Molecular Devices, Sunnyvale, Calif.) for the assessment of intracellular calcium flux. After monitoring the baseline fluorescence for 10 seconds, increasing concentrations of representative compound (from 0.01 to 60 μM) of the present invention diluted in Assay Buffer (15 μl of 4× dilutions) was added to the cell. The final DMSO concentration in the assay was 0.3%. In each experiment, fluorescence was then monitored as a function of time for 3 minutes and the data analyzed using Microsoft Excel and GraphPad Prism. Each data point was also measured two times.
Under these experimental conditions, this HEK-rat mGluR5 cell line is able to directly detect positive allosteric modulators without the need of co-addition of glutamate or mGluR5 agonist.
The concentration-response curves of representative compounds of the present invention were generated using the Prism GraphPad software (Graph Pad Inc, San Diego, USA). The curves were fitted to a four-parameter logistic equation:
(Y=Bottom+(Top-Bottom)/(1+10̂((Log EC50−X)*Hill Slope)
allowing determination of EC50 values.
The Table 1 below represents the mean EC50 obtained from at least three independent experiments of selected molecules performed in duplicate.
A general note: Calcium assays in cells follow changes in intracellular calcium, usually with a dye or a luminescent sensor.

T1 sequence (P31424 21-1203): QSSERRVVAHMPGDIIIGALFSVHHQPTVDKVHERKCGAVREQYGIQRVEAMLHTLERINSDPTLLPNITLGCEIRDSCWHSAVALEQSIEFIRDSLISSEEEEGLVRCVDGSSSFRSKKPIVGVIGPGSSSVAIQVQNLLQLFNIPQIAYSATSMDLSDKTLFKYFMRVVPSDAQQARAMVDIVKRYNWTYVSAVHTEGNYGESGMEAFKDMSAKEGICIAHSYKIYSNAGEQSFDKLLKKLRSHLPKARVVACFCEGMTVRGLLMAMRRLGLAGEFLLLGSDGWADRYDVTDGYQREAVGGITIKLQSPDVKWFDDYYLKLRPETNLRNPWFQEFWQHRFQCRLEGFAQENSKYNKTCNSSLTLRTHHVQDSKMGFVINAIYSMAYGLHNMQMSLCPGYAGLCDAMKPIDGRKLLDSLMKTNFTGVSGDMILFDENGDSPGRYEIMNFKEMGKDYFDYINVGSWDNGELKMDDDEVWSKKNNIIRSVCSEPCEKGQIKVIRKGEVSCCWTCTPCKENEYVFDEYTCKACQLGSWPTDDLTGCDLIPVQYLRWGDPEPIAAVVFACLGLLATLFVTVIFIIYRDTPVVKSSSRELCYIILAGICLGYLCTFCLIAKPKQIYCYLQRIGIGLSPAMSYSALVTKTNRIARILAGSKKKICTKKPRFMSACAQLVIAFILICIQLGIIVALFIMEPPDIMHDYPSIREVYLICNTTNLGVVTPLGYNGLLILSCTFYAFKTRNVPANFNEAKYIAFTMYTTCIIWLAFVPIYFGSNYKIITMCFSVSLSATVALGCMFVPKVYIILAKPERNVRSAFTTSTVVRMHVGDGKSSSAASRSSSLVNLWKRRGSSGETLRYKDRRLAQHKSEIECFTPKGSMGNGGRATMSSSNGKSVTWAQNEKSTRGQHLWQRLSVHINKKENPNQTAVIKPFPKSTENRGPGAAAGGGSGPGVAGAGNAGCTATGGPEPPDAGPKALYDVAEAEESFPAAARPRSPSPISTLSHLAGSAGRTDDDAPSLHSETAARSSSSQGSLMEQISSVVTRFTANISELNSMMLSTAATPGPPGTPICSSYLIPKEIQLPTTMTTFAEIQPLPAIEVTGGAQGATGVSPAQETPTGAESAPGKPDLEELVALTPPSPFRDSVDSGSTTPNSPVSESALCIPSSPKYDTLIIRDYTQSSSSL
T2 sequence (P31424 21-1171 isoform P31424-2 limits assumed): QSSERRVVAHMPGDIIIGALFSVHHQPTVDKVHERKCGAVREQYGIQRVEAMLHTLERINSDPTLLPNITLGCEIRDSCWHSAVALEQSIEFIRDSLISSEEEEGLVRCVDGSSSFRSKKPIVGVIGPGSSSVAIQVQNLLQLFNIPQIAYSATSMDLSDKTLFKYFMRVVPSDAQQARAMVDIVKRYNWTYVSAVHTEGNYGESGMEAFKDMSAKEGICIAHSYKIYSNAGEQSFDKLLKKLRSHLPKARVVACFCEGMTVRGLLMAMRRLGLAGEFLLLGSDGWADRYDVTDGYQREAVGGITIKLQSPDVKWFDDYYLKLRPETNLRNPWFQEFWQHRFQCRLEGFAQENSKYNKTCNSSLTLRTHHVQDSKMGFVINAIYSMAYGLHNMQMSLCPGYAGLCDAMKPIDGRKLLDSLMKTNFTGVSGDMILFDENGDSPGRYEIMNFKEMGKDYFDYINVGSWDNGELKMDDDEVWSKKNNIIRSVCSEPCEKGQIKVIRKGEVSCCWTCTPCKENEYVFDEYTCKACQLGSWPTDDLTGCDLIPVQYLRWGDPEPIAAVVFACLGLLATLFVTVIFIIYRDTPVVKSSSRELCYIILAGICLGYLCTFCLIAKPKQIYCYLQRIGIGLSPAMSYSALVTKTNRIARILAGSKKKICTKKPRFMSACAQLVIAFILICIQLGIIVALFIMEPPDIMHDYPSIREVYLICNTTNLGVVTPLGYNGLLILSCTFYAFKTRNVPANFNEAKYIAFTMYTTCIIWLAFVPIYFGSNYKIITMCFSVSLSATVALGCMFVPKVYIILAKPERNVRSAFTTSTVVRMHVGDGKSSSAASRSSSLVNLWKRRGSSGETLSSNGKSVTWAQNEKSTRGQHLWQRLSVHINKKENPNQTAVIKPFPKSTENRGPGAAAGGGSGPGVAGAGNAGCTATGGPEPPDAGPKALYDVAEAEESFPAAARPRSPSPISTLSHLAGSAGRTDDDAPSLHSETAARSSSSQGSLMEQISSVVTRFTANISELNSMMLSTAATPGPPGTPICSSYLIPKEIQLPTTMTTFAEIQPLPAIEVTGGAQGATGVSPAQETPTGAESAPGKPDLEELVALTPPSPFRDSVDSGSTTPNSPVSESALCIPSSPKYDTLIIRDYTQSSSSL

The term melting point denotes the temperature of the solid-liquid transition. Broadly, the IC50 is the point on the concentration scale where inhibition reaches its midpoint. A word on the EC50: it is the concentration giving half of the maximal effect. Regarding `O=C(c1ccc(F)cc1)N1CCC[C@H](c2nc(-c3cc(F)c[nH]3)co2)C1` [Example 1, (4-Fluoro-phenyl)-{(S)-3-[4-(4-fluoro-1H-pyrrol-2-yl)-oxazol-2-yl]-piperidin-1-yl}-methanone], the melting point is 136 °C. In addition, on mGluR5, the IC50 was less than 10 µM. Also, the 50% effective concentration (EC50) at rat mGluR5 is less than 1000 nM.
